Measured values as given in patent US20240252652A1, “PROTEINS HAVING UNNATURAL AMINO ACIDS AND METHODS OF USE” (The Regents of the University of California, priority 2021, published 2024).

Columns and labels:
[1] = test system: GST dimer; assay: Cross-linking of GST-103SFY-107X in live mammalian cells; assay type: cell-based; settings: HEK293T cells, Western blot
Description: (§1) To determine which amino acid residues could react with SFY via proximity-enabled reactivity directly in cells, we coexpressed in E. coli the Z protein and an affibody (Afb) specifically binding it. Based on the crystal structure of Afb-Z complex, we introduced SFY at site 24 of the Z protein and various natural residues at site 7 of the affibody (FIG. 11D), placing the two residues in close proximity upon Afb-Z binding. (Wang et al. J. Am Chem. Soc. 140:4995-4999 (2018)). After expression of Afb(24SFY) and Z(7X) (X=target residue) for 6 h. cells were lysed and analyzed with Western blot under denatured conditions (FIG. 11E). Crosslinking bands corresponding to the adduct of Afb and Z were detected for target residue His. Tyr, and Lys, for both Mm-tRNA^Pyl/MmSFYRS and Ma-tRNA^Pyl/MaSFYRS. We then purified 6×His-tagged Z and Afb proteins from cells and analyzed with SDS-PAGE. Consistently, a protein band corresponding to the cross-linked Z with Afb was clearly observed for Afb-7Lys. Afb-7His, and Afb-7Tyr (FIG. 11E). We further tested if SFY could crosslink with these residues in mammalian cells. […] (Liu et al. J. Am Chem. 141:9458-9462 (2019)). We incorporated SFY at site 103 of GST and mutated residue 107 to various target residues. HEK293T cells expressing these GST mutants were lysed and Western blotted to detect covalent GST dimer formation (FIG. 11G). […]

[2] = test system: HEK293T cells; assay: Cell viability assay (CellTiter-Blue); assay type: cell-based, human; settings: 0-1 mM SFY, 24 h or 48 h
Method: Error bars represent s.e.m.; n=3 independent tests.
Cell viability assay. 2×10^4 cells/well of HEK293T cells were seeded in a 96-well plate. On the next day, the media were replaced with fresh DMEM media supplemented with 0, 0.0625, 0.125, 0.25, 0.5, or 1 mM of SFY. The SFY-treated and control cells were cultured for an additional 24-48 h at 37° C. and then analyzed with CellTiter-Blue R Cell Viability Assay following the manufacturer's instructions.

[3] = test system: Afb-Z complex; assay: Cross-linking of MBP-Z24SFY and Afb4A-7X in live E. coli cells; assay type: cell-based; settings: 6 h expression, Western blot
Description: as §1

COc1ccc(C[C@H](N)C(=O)O)cc1S(=O)(=O)F [SFY, (S)-1-carboxy-2-(3-(fluorosulfonyl)-4-methoxyphenyl)ethan-1-aminium]
target residues reacting (covalent GST dimer) [1]: react with His. Tyr, and Lys
toxicity to HEK293T cells [2]: did not observe obvious toxicity
target residues giving crosslinking bands (adduct of Afb and Z) [3]: detected for target residue His. Tyr, and Lys
